Data published in US20050171030A1, “Relieving symptoms of erectile dysfunction and attaining sexual wellness and health of the sexual vascular system with proanthocyanidins” (priority 2000, published 2005).
“And” between values parts separate entries of the source, which are not always exact repeats. Equal entries are not always repeated.

What was measured:
postmenopausal women = details: taken together with supplemental hormones; 202 postmenopausal women; cited from earlier work
[1] = system: men with testosterone levels below normal; assay: Example 2: 12-month treatment of 50 men with testosterone levels below normal and secondary infertility; Global efficacy questionnaire on erection; type: in vivo, human; details: after 1 month treatment with L-arginine (only)
Protocol: In the department of Dr. Stanislavov and Dr. Nikolova 50 men aged between 45-60 with testosterone levels below normal were treated daily with • Pycnogenol® 120 mg • L-arginine (Sargenor) 1.71 g • Testosterone undecanoate 120 mg • over a period of 12 months because of secondary infertility.

[2] = system: men with erectile dysfunction; assay: Clinical study of arginine aspartate (Sargenor) alone and with Pycnogenol in 40 men with erectile dysfunction; type: in vivo, human
Protocol: A clinical study was conducted on forty participants who had erectile dysfunction. The study involved the effect of taking arginine asparatate, which is a salt of arginine with aspartic acid. One gram of arginine asparatate contains 566.85 mg of arginine.
The participants were grouped according to their variant of disturbed erection. The variants are in five categories: weakened, delayed, hesitating, losing and normal. The “weakened” variant signifies that the penis increases in size and becomes hard to a certain extent, but it is not enough to enter the vagina. The “delayed” variant signifies that if it is possible for the penis to become hard enough to enter the vagina, but such may require additional time. The “hesitating” variant signifies that before or after sexual contact, the erection is unstable and thus makes the sexual intercourse more difficult. The “losing” variant signifies that during the love game there is good erection, but such is lost when trying to make contact or during intercourse. The “normal” variant signifies that no appreciable disturbed erection was present.
The clinical study was over three months. During the first month, only 3 doses of 1000 milligrams (mg) of arginine asparatate (Sargenor) were administered daily to each participant. By the end of the first month, there was improvement in erectile dysfunction in about 10% of the participants. During the second month, 2 doses of 40 mg of Pycnogenol® food supplement were administered daily to each participant, together with the 3 doses of 1000 mg of arginine asparatate. By the end of the second month, there was a statistically significant improvement of erectile dysfunction in 80% of the participants. During the third month, 3 doses of 40 mg of Pycnogenol® food supplement were administered daily to each participant, together with the 3 doses of 1000 mg of arginine asparatate. By the end of the third month, there was further improvement of the erectile dysfunction condition even for some of the participants who had not shown improvement during the second month. Overall, there was a statistically significant improvement of erectile dysfunction in 92% of the treated participants.
The following statistical analysis of the results from the clinical study calculate the probability of whether the observed differences between two treatments are statistically significant at a certain level.
Dr. Romil Stanislavov and V. Nikolova of The Seminological Laboratory SBALAG in Maichin Dom, Sofia, Bulgaria investigated the possibility to overcome erectile dysfunction by increasing the amounts of endogenous NO. For this purpose, Pycnogenol® pine bark extract as it is known to stimulate nitric oxide synthase was orally administered together with L-arginine as substrate for this enzyme.
The study included 40 men aged 25 to 45 years (mean age 36.6.+−.5.3 years) with confirmed functional erectile dysfunction of at least 3 months duration, who were unable to achieve adequate erection and rigidity sufficient for vaginal penetration and completion of successful intercourse after spontaneous sexual stimulation. All patients were required to be involved in a stable, monogamous relationship with a female partner for more than 6 months.
Exclusion criteria were severe cardiovascular diseases, hypertension, renal failure, hepatic insufficiency, endocrine abnormalities, and psychiatric disorders. Patients were also excluded if they were currently or recently treated for erectile dysfunction by vasoactive medications, surgery, or any mechanical device. Concomitant use of other therapies for erectile dysfunction were not allowed. The study was approved by the Ethics Committee of Medical Research Board of the University Clinic of Sofia, Bulgaria and written consent was obtained from each participant. […]

[3] = after 1 month, arginine aspartate (Sargenor) 3 x 1000 mg daily only, 40 patients

Molecule	Women reporting improved genital sensations (postmenopausal women) [%]	Assessment of erection: Disturbed (weakened, delayed, hesitating, loosing), number of patients [1]	Assessment of erection: Disturbed (weakened, delayed, hesitating, loosing), percent of patients [1] [%]	Assessment of erection: Normal, number of patients [1]	Assessment of erection: Normal, percent of patients [1] [%]	Responders (restored erectile function), number of patients ([2]; Sargenor only, 1. month)	Responders (restored erectile function), percent of patients ([2]; Sargenor only, 1. month) [%]	Normal erection, D (percent distribution) [2, 3] [%]	Normal erection, n (number of patients) [2, 3]	Variant of disturbed erection: Delayed, D (percent distribution) [2, 3] [%]	Variant of disturbed erection: Delayed, n (number of patients) [2, 3]	Variant of disturbed erection: Hesitating, D (percent distribution) [2, 3] [%]	Variant of disturbed erection: Hesitating, n (number of patients) [2, 3]	Variant of disturbed erection: Losing, D (percent distribution) [2, 3] [%]	Variant of disturbed erection: Losing, n (number of patients) [2, 3]	Variant of disturbed erection: Weakened, D (percent distribution) [2, 3] [%]	Variant of disturbed erection: Weakened, n (number of patients) [2, 3]	Participants with improvement in erectile dysfunction ([2]; end of first month, 3 doses of 1000 mg arginine asparatate daily only)	Mean time of duration (of the erection) ([2]; mean (SEM), responders, Sargenor only, 1. month) [min]	Mean time until response emerges ([2]; mean (SEM), responders, spontaneous sexual stimulation, Sargenor only, 1. month)
CCCc1nn(C)c2c(=O)[nH]c(-c3cc(S(=O)(=O)N4CCN(C)CC4)ccc3OCC)nc12 [sildenafil]	57																			
L-arginine aspartate [Sargenor]		42	84	8	16	2	5	5	2	25	10	10	4	10	4	50	20	about 10%	2 ± 1	10 min and 10 ± 2 min
